“Also recorded” adds a separate entry of the source. Like-named read-outs stand apart in the source and are kept apart here.
How the values were obtained:
TNF-α [1] = test: Purinergic compounds on LPS+PHA-induced TNF-α secretion in whole blood, Experiment 3; type: cell-based, human; conditions: for inhibiting TNFα production in LPS-PHA stimulated whole blood, compared with ATP: pretreatment of whole blood, initial findings, ATP compared with ADP, AMP or adenosine; for effect on LPS+PHA-induced TNF-α release (FIG. 8): compound at 300 μM, 24 h, order of inhibition adenosine<AMP<ADP<ATP; for anti-inflammatory effects relative to those of ATP: same whole blood model ex vivo
Procedure: (§1) Blood is collected as described for Experiment 1. Whole blood is then aliquoted into 24-well sterile plates and diluted 1:4 with RPMI 1640 (supplemented with L-glutamine). To induce cytokine production, PHA and bacterial LPS are added to whole blood at 1 μg/ml and 10 μg/ml respectively. After addition of ATP and stimulants, the plates are incubated in 5% CO2 at 37° C. for 24 h. Cell-free supernatant fluids are then collected by centrifugation (6000 rpm, 10 min at 4° C.) and stored at −20° C. until tested for presence of cytokines. All incubations are performed in duplicate. ATP, dissolved in RPMI 1640 culture medium, is added to the blood at a final concentration of 1-1000 μM. Blood is pre-incubated with ATP at 5% CO2 at 37° C. for 30 min before stimulation with LPS+PHA. The agonists are added in the same way as ATP, however their stock solutions are prepared in PBS and further diluted in medium.

IL-10 [2] = test: Purinergic compounds on LPS+PHA-induced IL-10 release in whole blood, Experiment 3; type: cell-based, human; conditions: pretreatment of whole blood; initial findings; ATP compared with ADP, AMP or adenosine
Procedure: as §1

[3] = tested on: mice bearing colon tumour; conditions: daily intraperitoneal injections of 25 mmol/L for 10 consecutive days (refs 9, 10), cited from earlier work
TNF-α [4] = test: LPS+PHA-induced TNF-α secretion in whole blood under oxidative stress (H2O2), Experiment 2; type: cell-based, human; conditions: whole blood with 1 or 10 mM H2O2, 24 h; effect at 100 and 300 μM ATP; disodium salt
Procedure: (§2) Blood was collected from 8 healthy subjects in heparin containing vacutainer tubes (Vacutainer, Becton-Dickinson, 170 I.U). […] Whole blood was aliquoted into 24-well sterile plates and diluted 1:4 with RPMI 1640 (supplemented with L-glutamine). To induce cytokine production, PHA and bacterial LPS were added at 1 μg/ml and 10 μg/ml final concentration respectively. After adding the concentrated solutions of ATP and the stimulants the plates were incubated in 5% CO2 at 37° C. for 24 h. After the incubation cell-free supernatant fluids were collected by centrifugation (6000 rpm, 10 min at 4° C.) and stored at −20° C. until tested for presence of cytokines.
(§3) All cytokines were quantified by means of PeliKine Compact human ELISA kits (CLB/Sanquin, The Netherlands), based on appropriate and validated sets of monoclonal antibodies. Assays were performed as follows. […] The antibody on the microtiter plate then captured the cytokine present in a measured volume of sample or standard, and non-bound material was removed by washing. […] Color development was stopped by addition of sulfuric acid and the intensity of the color was measured by a microtiter plate reader (absorbance at 450 nm). The absorbance was transformed to cytokine concentrations (ng/L) using the standard curve. […]

TNF-α [5] = test: LPS+PHA-induced TNF-α secretion in whole blood ex vivo (ELISA), Experiment 1; type: cell-based, human; conditions: 24 h
Excerpt: (§4) For the first experiment, purified phyto-haemagglutinin HA16 (PHA) and E. Coli 0.26: B6 lipopolysaccharide (LPS) were from Murex, Dartford, UK and Sigma Chemical Co, St. Louis, USA, respectively. Human TNF-α (7300 pg/ml) was obtained from CLB/Sanquin, The Netherlands. RPMI 1640 medium containing L-glutamine was obtained from Gibco, UK. Adenosine-5′-triphosphate disodium salt (ATP) was purchased from Calbiochem, USA.
(§5) Blood was collected from 8 healthy subjects in heparin containing vacutainer tubes (Vacutainer, Becton-Dickinson, 170 I.U). […] Whole blood was aliquoted into 24-well sterile plates and diluted 1:4 with RPMI 1640 (supplemented with L-glutamine). To induce cytokine production, PHA and bacterial LPS were added at 1 μg/ml and 10 μg/ml final concentration respectively. […]
as §3, with “antibodies.” for “antibodies. Assays were performed as follows.”

IL-6 [6] = test: LPS+PHA-induced IL-6 secretion in whole blood ex vivo (ELISA), Experiment 1; type: cell-based, human; conditions: whole blood of healthy subjects, 24 h; ATP 1-300 μM; disodium salt
Excerpt: as §4, §5
as §3, with “antibodies.” for “antibodies. Assays were performed as follows.”

[7] = tested on: advanced non-small-cell lung cancer patients; conditions: cited from earlier work
IL-6 [8] = test: LPS+PHA-induced IL-6 secretion in whole blood under oxidative stress (H2O2), Experiment 2; type: cell-based, human; conditions: whole blood with 1 or 10 mM H2O2, 24 h; ATP 1-300 μM; disodium salt
Procedure: as §2, §3

[9] = tested on: patients with non-small cell lung cancer; conditions: 15 newly diagnosed patients; after 4 ATP courses (ref 12); cited from earlier work
IL-10 [10] = test: LPS+PHA-induced IL-10 secretion in whole blood ex vivo (ELISA), Experiment 1; type: cell-based, human; conditions: 24 h
Excerpt: as §4, §5
as §3, with “antibodies.” for “antibodies. Assays were performed as follows.”

[11] = tested on: patients with non-small cell lung cancer; conditions: 8 stage IIIB/IV patients; 2 to 3 intravenous courses of 96 hours at 4-week intervals (ref 11); cited from earlier work
[12] = tested on: healthy non-smoking human subjects; test: Lactulose/rhamnose (L/R) intestinal permeability test after indomethacin, Experiment 4; type: in vivo; conditions: indomethacin (75 mg + 50 mg) and ATP into duodenum vs indomethacin only; 5 h urine
Procedure: Methods Intestinal permeability is tested in healthy non-smoking human subjects using the lactulose/rhamnose (L/R) intestinal permeability test. This barrier function test is based on the comparison of intestinal permeation of molecules of different sizes by measuring the ratio of urinary excretion of the disaccharide lactulose and the monosaccharide rhamnose. These two sugars follow different routes of intestinal permeation, i.e., lactulose permeates through the paracellular pathway, whereas rhamnose permeates transcellulary. The experiments are performed as follows: at t=−14 hrs, a Bengmark-type naso-intestinal tube (Flocare, Zoetermeer, The Netherlands) is installed into the stomach. Next, at t=−10 hrs, subjects ingest a capsule of indomethacin (75 mg) immediately followed by administration of either ATP or placebo directly into the subject's duodenum through the inserted tube. At t=−1 hr, after an overnight fast, subjects receive a second dose of indomethacin (50 mg) followed by either ATP or placebo. Then, at t=0, the permeability test is performed as follows: subjects ingest a hyperosmolar drink containing 5 g of lactulose and 0.5 g of L-rhamnose dissolve d in […] water. After ingestion of the hyperosmolar test drink, total urine produced over 5 hours is collected.

cancer patients = test: Safety of intravenous ATP home infusions in cancer patients; type: in vivo, human; conditions: over 60 intravenous home infusions in cancer patients
Excerpt: In order to determine the tolerance for ATP as well as the maximally tolerated dose of ATP, the first ATP infusion is preferably administered under medical supervision, usually in an in- or outpatient setting. Subsequent infusions can either be started at the hospital day care centre, at private homes, nursing homes, etc. according to a standardized protocol.

IL-10 [13] = test: LPS+PHA-induced IL-10 secretion in whole blood under oxidative stress (H2O2), Experiment 2; type: cell-based, human; conditions: whole blood with 1 or 10 mM H2O2, 24 h; ATP 1-300 μM; disodium salt
Procedure: as §2, §3

[14] = whole blood of healthy subjects, effect at 100 and 300 μM ATP (tested 1-300 μM), disodium salt

Structure (SMILES): CSc1nc(N)c2ncn([C@@H]3O[C@H](COP(=O)(O)OP(=O)(O)OP(=O)(O)O)[C@@H](O)[C@H]3O)c2n1 [2-MeS-ATP, reference compound]
- inhibiting TNFα production in LPS-PHA stimulated whole blood, compared with ATP (TNF-α [1]): at least partly mimicked
- stimulating IL-10 production in LPS-PHA stimulated whole blood, compared with ATP (IL-10 [2]): at least partly mimicked

Structure (SMILES): Nc1ncnc2c1ncn2[C@@H]1O[C@H](COP(=O)(O)OP(=O)(O)O)[C@@H](O)[C@H]1O [ADP]
- effect on LPS+PHA-induced TNF-α release (FIG. 8) (TNF-α [1]): inhibited
- anti-inflammatory effects relative to those of ATP (TNF-α [1]): less marked

Structure (SMILES): Nc1ncnc2c1ncn2[C@@H]1O[C@H](COP(=O)(O)O)[C@@H](O)[C@H]1O [AMP]
- effect on LPS+PHA-induced TNF-α release (FIG. 8) (TNF-α [1]): inhibited
- anti-inflammatory effects relative to those of ATP (TNF-α [1]): less marked
- host weight loss [3]: significant inhibition of host weight loss

Structure (SMILES): Nc1ncnc2c1ncn2[C@@H]1O[C@H](COP(=O)([O-])OP(=O)([O-])OP(=O)(O)O)[C@@H](O)[C@H]1O.[Na+].[Na+] [ATP, Adenosine-5′-triphosphate disodium salt]
- effect on LPS+PHA-induced TNF-α release (FIG. 8) (TNF-α [1]): greatest inhibition
- inhibiting TNFα production in LPS-PHA stimulated whole blood, compared with ATP (TNF-α [1]): more effective
- effect on LPS+PHA-induced TNF-α release under oxidative stress (TNF-α [4]): dose-dependent reduction; also recorded: significantly inhibited
- inhibition at 300 µM (TNF-α [5]; Homo sapiens, 300 μM ATP, whole blood, 10 μg/ml LPS + 1 μg/ml PHA, vs stimulation without ATP, read-out: inhibition of the TNF-α production): 65%
- effect on LPS+PHA-induced TNF-α release (TNF-α [5]; [14]): dose-dependent inhibition; also recorded: significantly inhibited
- stimulating IL-10 production in LPS-PHA stimulated whole blood, compared with ATP (IL-10 [2]): more effective
- effect on LPS+PHA-induced IL-6 release (IL-6 [6]): failed to significantly alter; also recorded: not influenced
- physical and functional quality of life, appetite, and muscle strength ([7]; ATP group, progressively deteriorated in control group (ref 13)): remained stable
- life-threatening side effects ([7]; ATP infusion during 30 hrs, previous study (13)): did not find any life-threatening side effects
- plasma levels of pro- or anti-inflammatory cytokines ([7]; further analyses, Dagnelie et al. 2003, unpublished data): no effect
- loss of weight and muscle mass ([7]; regular infusions vs control group with supportive care only (ref 13)): inhibited loss of weight and muscle mass
- effect on LPS+PHA-induced IL-6 release under oxidative stress (IL-6 [8]): no effect; also recorded: not influenced
- average weight gain [9]: 1.3 kg
- stimulation of the IL-10 production (IL-10 [10]; 300 μM ATP, whole blood, 10 μg/ml LPS + 1 μg/ml PHA, vs stimulation without ATP): 62%
- effect on LPS+PHA-induced IL-10 release (IL-10 [10]; [14]): increased the release of IL-10; also recorded: significantly increased
- body weight [11]: stabilisation of body weight
- urinary concentration ratio of lactulose relative to rhamnose [12]: lower
- hospital admissions (cancer patients): No hospital admissions were necessary
- serious side effects on the WHO Common Toxicity Criteria scale (cancer patients): no serious side effects grade 3-4
- host weight loss [3]: significant inhibition of host weight loss
- effect on LPS+PHA-induced IL-10 release under oxidative stress (IL-10 [13]): significant, dose-dependent rise; also recorded: significantly increased

Structure (SMILES): Nc1ccn([C@@H]2O[C@H](COP(=O)(O)OP(=O)(O)OP(=O)(O)O)[C@@H](O)[C@H]2O)c(=O)n1 [CTP]
- effect on LPS+PHA-induced TNF-α release (FIG. 8) (TNF-α [1]): not inhibited

Structure (SMILES): O=c1ccn([C@@H]2O[C@H](COP(=O)(O)OP(=O)(O)O)[C@@H](O)[C@H]2O)c(=O)[nH]1 [UDP]
- effect on LPS+PHA-induced TNF-α release (FIG. 8) (TNF-α [1]): not inhibited

Structure (SMILES): O=c1ccn([C@@H]2O[C@H](COP(=O)(O)OP(=O)(O)OP(=O)(O)O)[C@@H](O)[C@H]2O)c(=O)[nH]1 [UTP, uridine 5′-triphosphate]
- effect on LPS+PHA-induced TNF-α release (FIG. 8) (TNF-α [1]): not inhibited

Structure (SMILES): Nc1ncnc2c1ncn2[C@@H]1O[C@H](CO)[C@@H](O)[C@H]1O [adenosine]
- effect on LPS+PHA-induced TNF-α release (FIG. 8) (TNF-α [1]): least inhibition
- host weight loss [3]: significant inhibition of host weight loss
- host weight loss ([3]; listed as adenosine without phosphate): ineffective

Source: patent US20050261239A1, “Use of ATP for the manufacture of a medicament for treating certain inflammatory conditions, oxidative stress and fatigue” (Universiteit van Maastricht, priority 2004, published 2005)
